Measured values taken from patent publication US20240299360A1, “ADAMTS INHIBITORS, PREPARATION METHODS AND MEDICINAL USES THEREOF” (Jiangsu Hengrui Pharmaceuticals Co., Ltd., priority 2020, published 2024).

Assays:
Format in all cases: biochemical
[1] = target: T1, ADAMTS-5 recombinant protein (Homo sapiens (Human), UniProt Q9UNA0); assay: In vitro ELISA of ADAMTS-5 activity (Aggrecan-IGD enzymatic assay); conditions: aggrecan-IGD substrate, ARGSVIL-peptide ELISA, 37° C. 45 minutes
Procedure: In this assay, the enzymatic activity of recombinant ADAMTS-5 protein (catalog #2198-AD, R&D Systems) was assayed with a protein substrate, the aggrecan IGD protein. The aggrecan IGD protein is a polypeptide connecting human aggrecan globular domains 1 and 2 (T331-G458) expressed in E. Coli with a C-terminal His-tag (catalog #30411000, BIOTEZ). The enzymatic product ARGSVIL-peptide was detected using an ELISA kit from BioTEZ (catalog #30510111).
An assay buffer containing 50 mM HEPES pH 7.5, 100 mM NaCl, 5 mM CaCl2), 0.1% CHAPS and 5% Glycerol was prepared. Recombinant ADAMTS-5 protein was diluted to 0.3 nM in the assay buffer. Ten μl of […] and 10 μl of compound solution was transferred to each well of a 96-well plate and incubated at room temperature for 15 minutes. Substrate aggrecan-IGD was diluted to 100 nM with the assay buffer and 20 μl was added to each well. The plate was incubated at 37° C. for 45 minutes. After incubation, the newly generated epitope ARGSVIL-peptides were measured using the Aggrecanase Activity ELISA Assay Kit following the manufacturer's instructions. Then, 100 μl of stop solution was added and the absorbance of each well was read at 450 nm, using […] as reference on a TECAN plate reader.
A standard curve of the ELISA assay was generated in GraphPad Prism using Sigmoidal 4PL function and the corresponding peptide concentrations were calculated based on the standard curve. The IC50 values were calculated using function “log (inhibitor) vs. response—Variable slope (four parameters)”. (See Table 2).

[2] = target: ADAMTS-4 recombinant protein (Homo sapiens (Human), UniProt O75173); assay: In vitro fluorescence (FRET-peptide) enzymatic assay of ADAMTS-4 activity; conditions: FRET peptide substrate 15 μM, 10 nM enzyme, 37° C. 3 hours
Procedure: (§1) A FRET (fluorescence resonance energy transfer) peptide was cleaved by recombinant ADAMTS-4 or ADAMTS-5 proteins into two separate fragments resulting in an increase of fluorescence signal which was quantified. The peptide was 5-FAM-[…](5-TAMRA)K-NH2, customized from ANASPEC. ADAMTS-4 recombinant protein (catalog #4307-AD) and ADAMTS-5 recombinant protein (catalog #2198-AD) were purchased from R&D Systems.
(§2) An assay buffer containing 50 mM HEPES pH 7.5, 100 mM NaCl, 5 mM CaCl2, 0.1% CHAPS and 5% Glycerol was prepared. A volume of 2.5 μl of compound in the assay buffer was dispensed to a 384-well plate, and 2.5 μl of ADAMTS-4 or ADAMTS-5 protein (final concentration in the reaction was 10 nM) was added. The compounds and proteins were pre-incubated at room temperature for 15 minutes. Then, 5 μl of substrate was added to each well. The final substrate concentrations for ADAMTS-4 and ADAMTS-5 were 15 μM and 8 μM, respectively. The fluorescence signal in each well was determined, after incubation at 37° C. for 3 hours, on a TECAN plate reader (Excitation, 490 nm; Emission, 520 nm).
(§3) The data was inputted into GraphPad Prism, and the IC50 values were calculated using function “log (inhibitor) vs. response—Variable slope (four parameters)”. (See Table 1)

[3] = target: T1, ADAMTS-5 recombinant protein; assay: In vitro fluorescence (FRET-peptide) enzymatic assay of ADAMTS-5 activity; conditions: FRET peptide substrate 8 μM, 10 nM enzyme, 37° C. 3 hours
Procedure: as §1, §2, §3

T1 sequence (Q9UNA0 262-622): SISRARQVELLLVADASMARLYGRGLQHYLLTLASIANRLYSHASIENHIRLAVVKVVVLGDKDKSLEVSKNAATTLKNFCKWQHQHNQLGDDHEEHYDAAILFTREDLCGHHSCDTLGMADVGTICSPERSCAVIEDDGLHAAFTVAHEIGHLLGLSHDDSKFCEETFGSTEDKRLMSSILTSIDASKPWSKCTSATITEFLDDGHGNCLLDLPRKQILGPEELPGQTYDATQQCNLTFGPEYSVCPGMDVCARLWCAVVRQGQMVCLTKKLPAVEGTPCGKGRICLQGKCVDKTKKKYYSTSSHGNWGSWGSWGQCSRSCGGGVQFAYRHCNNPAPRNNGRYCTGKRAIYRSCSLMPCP
ADAMTS-4 recombinant protein, sequence (O75173 213-685): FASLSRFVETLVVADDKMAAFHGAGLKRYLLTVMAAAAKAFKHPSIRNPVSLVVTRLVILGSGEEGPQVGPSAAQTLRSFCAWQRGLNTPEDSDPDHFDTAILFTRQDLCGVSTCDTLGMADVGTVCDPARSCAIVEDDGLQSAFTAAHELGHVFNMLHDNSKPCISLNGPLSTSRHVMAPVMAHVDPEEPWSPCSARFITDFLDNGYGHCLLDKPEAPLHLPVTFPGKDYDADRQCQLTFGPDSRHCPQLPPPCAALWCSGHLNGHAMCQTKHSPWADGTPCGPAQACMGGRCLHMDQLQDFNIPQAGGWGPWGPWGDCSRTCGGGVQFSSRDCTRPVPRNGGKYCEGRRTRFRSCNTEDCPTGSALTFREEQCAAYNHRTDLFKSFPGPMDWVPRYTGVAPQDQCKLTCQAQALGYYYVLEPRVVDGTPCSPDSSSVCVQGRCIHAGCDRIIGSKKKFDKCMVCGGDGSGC

Row | Structure (SMILES) | IC50 [1] [nM] | IC50 [2] [nM] | IC50 [3] [nM]
1 | CCC(C[C@@]1(C2CC2)NC(=O)NC1=O)C(=O)N1Cc2ccc(C(F)(F)F)cc2C1 (stereo partly drawn) [Example 31-2, (5S)-5-cyclopropyl-5-(2-(5-(trifluoromethyl)isoindoline-2-carbonyl)butyl)imidazolidine-2,4-dione] | 33 | – | –
2 | Cc1nc(C2(CCC(=O)N3Cc4cc(Cl)c(C(F)(F)F)cc4C3)NC(=O)NC2=O)co1 (centres unmarked) [Example 81, 5-(3-(5-chloro-6-(trifluoromethyl)isoindolin-2-yl)-3-oxopropyl)-5-(2-methyloxazol-4-yl)imidazolidine-2,4-dione] | 120 | 260 | 77
3 | O=C1NC(=O)[C@](CCC(=O)N2Cc3ccc(Cl)cc3C2)(C2CC2)N1 [Example 2, (S)-5-(3-(5-chloroisoindolin-2-yl)-3-oxopropyl)-5-cyclopropylimidazolidine-2,4-dione] | 860 | 91 | 190
4 | Nc1cc2c(cc1Cl)CN(C(=O)CC[C@@]1(C3CC3)NC(=O)NC1=O)C2 [Example 54, (S)-5-(3-(5-amino-6-chloroisoindolin-2-yl)-3-oxopropyl)-5-cyclopropylimidazolidine-2,4-dione] | 200 | 11 | 110
5 | CCn1ccnc1C1(CCC(=O)N2Cc3cc(Cl)c(C(F)(F)F)cc3C2)NC(=O)NC1=O (centres unmarked) [Example 82, 5-(3-(5-chloro-6-(trifluoromethyl)isoindolin-2-yl)-3-oxopropyl)-5-(1-ethyl-1H-imidazol-2-yl)imidazolidine-2,4-dione] | – | 80 | 25
6 | CC1CN(C(=O)CC[C@@]2(C3CC3)NC(=O)NC2=O)CCc2ccc(F)cc21 (stereo partly drawn) [Example 22, (5S)-5-cyclopropyl-5-(3-(8-fluoro-1-methyl-1,2,4,5-tetrahydro-3H-benzo[d]azepin-3-y1)-3-oxopropyl)imidazolidine-2,4-dione] | 140 | 51 | 61
7 | O=C1NC(=O)[C@](CCC(=O)N2Cc3cc(F)c(F)cc3C2)(C2CC2)N1 [Example 19, (S)-5-cyclopropyl-5-(3-(5,6-difluoroisoindolin-2-yl)-3-oxopropyl)imidazolidine-2,4-dione] | – | 260 | 330
8 | O=C1NC(=O)[C@](C[C@@H](CO)C(=O)N2Cc3cc(Cl)c(C(F)(F)F)cc3C2)(C2CC2)N1 (single isomer, unassigned) | – | 16 | 15
9 | O=C1NC(=O)[C@](CCC(=O)N2Cc3cc(Cl)c(I)cc3C2)(C2CC2)N1 [Example 53, (S)-5-(3-(5-chloro-6-iodoisoindolin-2-yl)-3-oxopropyl)-5-cyclopropylimidazolidine-2,4-dione] | – | 240 | 170
10 | C[C@H]1CN(C(=O)CC[C@@]2(C3CC3)NC(=O)NC2=O)CCc2ccc(F)cc21 (single isomer, unassigned) [Example 27] | – | 170 | 270
11 | O=C1NC(=O)[C@](CCC(=O)N2Cc3cc(F)c(C(F)F)cc3C2)(C2CC2)N1 [Example 74, (S)-5-cyclopropyl-5-(3-(5-(difluoromethyl)-6-fluoroisoindolin-2-yl)-3-oxopropyl)imidazolidine-2,4-dione] | – | 56 | 100
12 | O=C1NC(=O)[C@](CCC(=O)N2Cc3cccnc3C2)(C2CC2)N1 [Example 12, (S)-5-cyclopropyl-5-(3-(5,7-dihydro-6H-pyrrolo[3,4-b]pyridin-6-yl)-3-oxopropyl)imidazolidine-2,4-dione] | – | 2300 | 1500
13 | CC1(C)CN(C(=O)CC[C@@]2(C3CC3)NC(=O)NC2=O)CCc2ccccc21 [Example 26, (S)-5-cyclopropyl-5-(3-(1,1-dimethyl-1,2,4,5-tetrahydro-3H-benzo[d]azepin-3-yl)-3-oxopropyl)imidazolidine-2,4-dione] | – | 3800 | 5400
14 | O=C1NC(=O)C(CCC(=O)N2Cc3ccc(C(F)(F)F)cc3C2)(c2nccs2)N1 (centres unmarked) [Example 43, 5-(3-oxo-3-(5-(trifluoromethyl)isoindolin-2-yl)propyl)-5-(thiazol-2-yl)imidazolidine-2,4-dione] | – | 150 | 250
15 | O=C1NC(=O)[C@](CCC(=O)N2Cc3cccc(F)c3C2)(C2CC2)N1 [Example 16, (S)-5-cyclopropyl-5-(3-(4-fluoroisoindolin-2-yl)-3-oxopropyl)imidazolidine-2,4-dione] | – | 1700 | 6200
16 | O=C1NC(=O)[C@](CCC(=O)N2Cc3ccc(OC(F)F)cc3C2)(C2CC2)N1 [Example 10, (S)-5-cyclopropyl-5-(3-(5-(difluoromethoxy)isoindolin-2-yl)-3-oxopropyl)imidazolidine-2,4-dione] | – | 41 | 260
17 | C[C@@H]1c2ccccc2CN1C(=O)CC[C@@]1(C2CC2)NC(=O)NC1=O [Example 14, (S)-5-cyclopropyl-5-(3-((R)-1-methylisoindolin-2-yl)-3-oxopropyl)imidazolidine-2,4-dione] | – | 290 | 1000
18 | O=C1NC(=O)[C@](CCC(=O)N2Cc3ccncc3C2)(C2CC2)N1 [Example 13, (S)-5-cyclopropyl-5-(3-(1,3-dihydro-2H-pyrrolo[3,4-c]pyridin-2-yl)-3-oxopropyl)imidazolidine-2,4-dione] | – | 1400 | 4000
19 | O=C1NC(=O)[C@](CCC(=O)N2Cc3cc(Cl)c([N+](=O)[O-])cc3C2)(C2CC2)N1 [Example 50, (S)-5-(3-(5-chloro-6-nitroisoindolin-2-yl)-3-oxopropyl)-5-cyclopropylimidazolidine-2,4-dione] | – | 120 | 220
20 | O=C1NC(=O)C(CCC(=O)N2Cc3ccc(C(F)(F)F)cc3C2)(c2ccccn2)N1 (centres unmarked) [Example 60, 5-(3-oxo-3-(5-(trifluoromethyl)isoindolin-2-yl)propyl)-5-(pyridin-2-yl)imidazolidine-2,4-dione] | – | 170 | 220
21 | O=C1NC(=O)[C@](CCC(=O)N2Cc3ccc(CC(F)(F)F)cc3C2)(C2CC2)N1 [Example 72, (S)-5-cyclopropyl-5-(3-oxo-3-(5-(2,2,2-trifluoroethyl)isoindolin-2-yl)propyl)imidazolidine-2,4-dione] | – | 43 | 130
22 | C[C@@H]1CN(C(=O)CC[C@@]2(C3CC3)NC(=O)NC2=O)CCc2ccc(F)cc21 (single isomer, unassigned) [Example 28] | – | 47 | 48
23 | Cn1ccc(C2(CCC(=O)N3Cc4cc(Cl)c(C(F)(F)F)cc4C3)NC(=O)NC2=O)n1 (centres unmarked) [Example 77, 5-(3-(5-chloro-6-(trifluoromethyl)isoindolin-2-yl)-3-oxopropyl)-5-(1-methyl-1H-pyrazol-3-yl)imidazolidine-2,4-dione] | – | 400 | 160
24 | COc1cccc2c1CCN(C(=O)CC[C@@]1(C3CC3)NC(=O)NC1=O)CC2 [Example 25, (S)-5-cyclopropyl-5-(3-(6-methoxy-1,2,4,5-tetrahydro-3H-benzo[d]azepin-3-yl)-3-oxopropyl)imidazolidine-2,4-dione] | – | 5800 | 3600
25 | O=C1NC(=O)[C@](CCC(=O)N2Cc3ccc(F)cc3C2)(C2CC2)N1 [Example 17, (S)-5-cyclopropyl-5-(3-(5-fluoroisoindolin-2-yl)-3-oxopropyl)imidazolidine-2,4-dione] | – | 310 | 370
